The record followed here is ChEMBL document CHEMBL5506031, “Design, Synthesis, Bioactive Evaluation, and Molecular Dynamics Simulation of Novel 4H-Pyrano[3,2-c]pyridine Analogues as Potential Sterol 14α-Demethylase (CYP51) Inhibitors” (J Med Chem, 2024).

Usually MIC stands for the lowest concentration that inhibits growth of the organism. Usually inhibition stands for the share of the control response that was lost under treatment. Broadly, the IC50 is the concentration that inhibits the measured activity by half. The low end stands for higher potency, the high end for lower potency. Usually EC50 stands for the concentration needed to bring the measured effect to its halfway point.

In assay [1] the test system is Candida albicans. Put plainly: Antifungal activity against Candida albicans. It counts as functional.
Assay [2] concerns Aspergillus niger. The assay is described as follows: Antifungal activity against Aspergillus niger. The format is functional.
In assay [3] the test system is Sclerotinia sclerotiorum. The assay is described as follows: Fungicidal activity against Sclerotinia sclerotiorum assessed as fungal inhibitory rate at 16 ug/ml relative to control. The format is functional.
In assay [4] the test system is Colletotrichum lagenaria. The assay is described as follows: Fungicidal activity against Colletotrichum lagenarium assessed as fungal inhibitory rate at 16 ug/ml relative to control. The format is functional.
The test system of assay [5] is Botrytis cinerea. The assay is described as follows: Fungicidal activity against Botrytis cinerea assessed as fungal inhibitory rate at 16 ug/ml relative to control. It counts as functional.
Assay [6] has as its system Penicillium digitatum. The assay is described as follows: Fungicidal activity against Penicillium digitatum assessed as fungal inhibitory rate at 16 ug/ml relative to control. It counts as functional.
Assay [7] has as its system Fusarium oxysporum. Put plainly: Fungicidal activity against Fusarium oxysporum assessed as fungal inhibitory rate at 16 ug/ml relative to control. The format is functional.
Assay [8] has as its system Botrytis cinerea. Put plainly: Induction of morphological changes in Botrytis cinerea assessed as irregular mycelia at 0.5 ug/ml incubated for 6 days by SEM analysis. It counts as functional, organism-based. Conditions: dose 0.5 µg/ml, time 6.0 day.
Assay [9] deals with Botrytis cinerea. Put plainly: Induction of morphological changes in Botrytis cinerea assessed as uneven mycelia at 0.5 ug/ml incubated for 6 days by SEM analysis. The format is functional, organism-based. The note with it: dose 0.5 µg/ml, time 6.0 day.
The test system of assay [10] is Botrytis cinerea. Put plainly: Induction of morphological changes in Botrytis cinerea assessed as tangled mycelia at 0.5 ug/ml incubated for 6 days by SEM analysis. It counts as functional, organism-based. Conditions: dose 0.5 µg/ml, time 6.0 day.
The subject of assay [11] is Botrytis cinerea. Put plainly: Induction of morphological changes in Botrytis cinerea assessed as crinkly mycelia at 0.5 ug/ml incubated for 6 days by SEM analysis. It counts as functional, organism-based. Conditions: dose 0.5 µg/ml, time 6.0 day.
For assay [12], the system named is Botrytis cinerea. Put plainly: Induction of morphological changes in Botrytis cinerea assessed as thin cell wall at 0.5 ug/ml incubated for 6 days by TEM analysis. It counts as functional, organism-based. Conditions: dose 0.5 µg/ml, time 6.0 day.
Assay [13] relates to Botrytis cinerea. The assay is described as follows: Induction of morphological changes in Botrytis cinerea assessed as thin cell membrane at 0.5 ug/ml incubated for 6 days by TEM analysis. The format is functional, organism-based. Conditions: dose 0.5 µg/ml, time 6.0 day.
Assay [14] has as its system Botrytis cinerea. The assay is described as follows: Induction of morphological changes in Botrytis cinerea assessed as cracked cell structure at 0.5 ug/ml incubated for 6 days by TEM analysis. The format is functional, organism-based. Conditions: dose 0.5 µg/ml, time 6.0 day.
Assay [15] in a line: Inhibition of Botrytis cinerea CYP51 by ELISA. Background: An ELISA detects its analyte on a solid surface through an enzyme-linked reagent.
The test system of assay [16] is Botrytis cinerea. The assay is described as follows: Inhibition of Botrytis cinerea CYP51 by fluorescent quenching analysis. The note with it: dose <= 16.0 µg/ml.
Assay [17] deals with Botrytis cinerea. The assay is described as follows: Fungicidal activity against Botrytis cinerea assessed as fungal growth reduction. It counts as functional, organism-based.
For assay [18], the system named is Alternaria alternata. The assay is described as follows: Antifungal activity against Alternaria alternata assessed as fungal inhibition rate at 100 ug/ml relative to control. It counts as functional.
The subject of assay [19] is Alternaria solani. Put plainly: Antifungal activity against Alternaria solani assessed as fungal inhibition rate at 100 ug/ml relative to control. It counts as functional.
The test system of assay [20] is Aspergillus flavus. Put plainly: Antifungal activity against Aspergillus flavus. It counts as functional.

≈ marks a conversion by molar mass, not a printed value. Calls of active or inactive are those of the source. The calls are words filed in the database; no cut-off is given here.

The molecule `COc1ccc(NC(=O)c2cc3c(CO)cnc(C)c3o/c2=N\c2ccc(Cl)c(C)c2)cc1` gave an MIC in [1] of 12.5 µg/mL (≈ 26.9 µM).

Turning to `COc1ccc(C2c3ccc4ncccc4c3Oc3nc[nH]c(=S)c32)cc1` (stereo not drawn), in [2], the lowest concentration to inhibit growth (MIC) was 125 µg/mL (≈ 335 µM).

For `COC(=O)C1=C(N)OC2=C(CN(C(=O)c3ccco3)C/C2=C\c2ccco2)C1c1ccco1` (stereo not drawn), the inhibition at 16 µg/mL in [3] is 85%; in [4], 86.8%; in [5], 100%; in [6], 78.4%; in assay [7], 87.1%. Moreover, the outcome in [8], in [9], in assay [10], in [11], in [12] and in assay [13] was Active. In assay [14], the result was Active. Also, the IC50 in [15] was 0.377 µg/mL (≈ 0.841 µM). For the same molecule, the inhibition entry in [16] was “Dose-Dependent Effect”.

Regarding `Fc1ccc([C@@]2(Cn3cncn3)O[C@@H]2c2ccccc2Cl)cc1`, the inhibition at 16 µg/mL in assay [3] was determined as 100%; in [4], 94.3%; in assay [5], 100%; in assay [6], 78.6%; in [7], 87.3%. Besides, the EC50 in assay [17] was 0.67 µg/mL (≈ 2.03 µM). For the same molecule, the result in assay [8], in assay [9], in [10], in assay [11], in assay [12] and in [13] was Active. For the same molecule, the result in assay [14] was Active. For the same molecule, the IC50 in assay [15] was found to be 0.802 µg/mL (≈ 2.43 µM). Also, the inhibition entry in assay [16] is “Dose-Dependent Effect”.

Turning to `CC1(C)CC(=O)C2=C(C1)OC(N)=C(C#N)C2c1ccco1` (stereo not drawn), the MIC in assay [1] and in assay [2] was 12.5 µg/mL (≈ 44 µM) in each case.

With `CCOC(=O)c1c(C)nc2c(c1C)c(=O)oc1c(OC(=O)C(Br)CC)cccc12` (stereo not drawn), the inhibition at 100 µg/mL worked out at 62.1% in assay [18] and 54.6% in assay [19].

As for `CCCC(Br)C(=O)Oc1ccc2c(c1)oc(=O)c1c(C)c(C(=O)OCC)c(C)nc12` (stereo not drawn), the inhibition at 100 µg/mL in assay [18] is 44.6%; in assay [19], 40.7%.

As to `Cc1cc(C)c2c(=O)oc3cc(OC(=O)C(C)Br)ccc3c2n1` (stereo not drawn), the inhibition at 100 µg/mL in assay [18] came out at 41.6%; in assay [19], 52.4%.

In turn, `COc1ccc(C2c3ccc4ccccc4c3Oc3[nH]c(=S)[nH]c(=S)c32)cc1` (stereo not drawn) showed an MIC in assay [2] of 125 µg/mL (≈ 309 µM).

Regarding `COC(=O)C1=C(N)OC2=C(CN(C(=O)c3cccs3)C/C2=C\c2ccc(Cl)s2)C1c1ccc(Cl)s1` (stereo not drawn), the inhibition at 16 µg/mL in [3] stood at 74.1%; in assay [4], 72.2%; in assay [5] it was 100%; in [6], 67.5%; in assay [7], 72.8%. Besides, the EC50 in assay [17] stood at 0.824 µg/mL (≈ 1.46 µM). Moreover, the IC50 in assay [15] came to 0.907 µg/mL (≈ 1.6 µM).

With `COC(=O)C1=C(C)OC(N)=C(C#N)C1c1ccc(F)cc1` (stereo not drawn), the minimum inhibitory concentration (MIC) in assay [1] and in assay [20] was 12.5 µg/mL (≈ 43.4 µM) in each case.

`COC(=O)C1=C(N)OC2=C(CN(C(=O)c3ccco3)C/C2=C\c2ccc(Br)o2)C1c1ccc(Br)o1` (stereo not drawn): the inhibition at 16 µg/mL in assay [3] worked out at 82.7%; in assay [4], 84.9%; in [5], 100%; in assay [6] it was 76%; in assay [7] it was 83.5%. Moreover, in assay [17], the EC50 was found to be 0.53 µg/mL (≈ 0.874 µM). The outcome in assay [8], in assay [9], in assay [10], in assay [11], in assay [12] and in assay [13] was Active. In addition, the outcome in assay [14] was Active. This molecule came in with an IC50 in assay [15] of 0.611 µg/mL (≈ 1.01 µM). For the same molecule, the inhibition entry in assay [16] is “Dose-Dependent Effect”.

Turning to `CC1(C)CC(=O)C2=C(C1)OC(N)=C(C#N)C2c1ccc(F)cc1` (stereo not drawn), the MIC in [20] and in [2] was 12.5 µg/mL (≈ 40 µM) in each case.

With `N#CC1=C(N)OC2=C(CN(C(=O)c3ccco3)C/C2=C\c2ccc(Cl)s2)C1c1ccc(Cl)s1` (stereo not drawn), the inhibition at 16 µg/mL in assay [3] turned out to be 53.5%; in assay [4], 52.5%; in [5] it was 94%; in assay [6], 47.1%; in assay [7] it was 46.6%. For the same molecule, the EC50 in [17] came out at 2.07 µg/mL (≈ 4.01 µM). The same molecule showed an IC50 in assay [15] of 2.333 µg/mL (≈ 4.52 µM).
